Common to all, as to experiment: SelectScreen Kinase Profiling, single point inhibition and IC50 for off-target kinases
Format in all cases: biochemical

For experiment [1], the target named is T1, off-target kinases (Homo sapiens, UniProt Q04771, R206H).
T1 sequence (Q04771 21-509 R206H): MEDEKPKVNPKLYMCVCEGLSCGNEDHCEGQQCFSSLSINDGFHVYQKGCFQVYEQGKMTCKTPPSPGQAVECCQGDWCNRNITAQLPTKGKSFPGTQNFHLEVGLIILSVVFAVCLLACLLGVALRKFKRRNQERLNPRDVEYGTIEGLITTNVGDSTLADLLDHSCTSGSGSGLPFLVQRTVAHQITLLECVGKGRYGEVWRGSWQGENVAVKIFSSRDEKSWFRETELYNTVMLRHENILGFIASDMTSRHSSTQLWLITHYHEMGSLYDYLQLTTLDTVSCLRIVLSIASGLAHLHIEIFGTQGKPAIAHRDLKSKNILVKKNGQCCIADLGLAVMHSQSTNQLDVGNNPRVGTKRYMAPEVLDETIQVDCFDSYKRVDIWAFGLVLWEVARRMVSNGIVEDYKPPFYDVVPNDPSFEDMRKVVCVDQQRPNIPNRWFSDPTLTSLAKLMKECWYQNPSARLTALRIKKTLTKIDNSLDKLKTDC
The following applies: ACVR1 (ALK2) R206H, LanthaScreen Binding.

In experiment [2] the target is T2, off-target kinases (Homo sapiens, UniProt Q8NE63).
T2 sequence (Q8NE63 1-616): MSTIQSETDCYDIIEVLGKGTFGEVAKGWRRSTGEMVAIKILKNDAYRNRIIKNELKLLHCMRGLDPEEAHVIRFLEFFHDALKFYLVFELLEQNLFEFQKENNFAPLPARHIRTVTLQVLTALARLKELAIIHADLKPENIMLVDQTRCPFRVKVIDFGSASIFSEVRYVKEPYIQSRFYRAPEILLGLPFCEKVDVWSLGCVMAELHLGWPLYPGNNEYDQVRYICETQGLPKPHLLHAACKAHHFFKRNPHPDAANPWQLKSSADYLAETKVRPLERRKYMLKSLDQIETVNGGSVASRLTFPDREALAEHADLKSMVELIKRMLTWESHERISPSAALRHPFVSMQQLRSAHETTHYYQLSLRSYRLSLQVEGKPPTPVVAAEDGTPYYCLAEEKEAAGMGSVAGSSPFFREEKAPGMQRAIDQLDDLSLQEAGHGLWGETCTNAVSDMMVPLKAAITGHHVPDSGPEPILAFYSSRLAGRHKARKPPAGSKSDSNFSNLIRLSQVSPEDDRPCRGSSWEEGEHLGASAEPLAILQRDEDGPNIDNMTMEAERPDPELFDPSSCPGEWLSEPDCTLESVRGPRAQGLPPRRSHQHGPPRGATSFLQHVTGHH
The conditions noted are these: HIPK4, ZLYTE, ATP Km app.

Experiment [3] deals with off-target kinases (Homo sapiens, UniProt Q13131).
Experiment [4] has as its target off-target kinases (Homo sapiens, UniProt Q9HBH9). The conditions noted are these: MKNK2 (MNK2), LanthaScreen Binding.

Like-named read-outs stand apart in the source and are kept apart here.

Sequence of off-target kinases (Homo sapiens, UniProt Q13131) (Q13131 whole entry): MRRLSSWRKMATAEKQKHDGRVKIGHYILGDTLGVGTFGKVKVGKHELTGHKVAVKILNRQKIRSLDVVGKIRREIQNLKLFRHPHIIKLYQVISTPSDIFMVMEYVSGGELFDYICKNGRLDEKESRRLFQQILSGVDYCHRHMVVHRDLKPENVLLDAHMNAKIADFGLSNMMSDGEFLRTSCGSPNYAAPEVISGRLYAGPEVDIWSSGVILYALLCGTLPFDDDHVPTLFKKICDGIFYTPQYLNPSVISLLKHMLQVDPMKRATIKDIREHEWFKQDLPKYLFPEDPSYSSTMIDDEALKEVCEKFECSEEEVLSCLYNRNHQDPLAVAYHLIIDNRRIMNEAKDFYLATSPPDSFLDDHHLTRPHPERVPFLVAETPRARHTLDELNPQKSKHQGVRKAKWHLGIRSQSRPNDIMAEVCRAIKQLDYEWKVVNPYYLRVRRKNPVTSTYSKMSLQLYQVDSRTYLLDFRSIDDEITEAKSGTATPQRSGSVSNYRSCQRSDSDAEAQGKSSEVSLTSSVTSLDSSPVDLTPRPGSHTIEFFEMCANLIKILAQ
Sequence of off-target kinases (Homo sapiens, UniProt Q9HBH9) (Q9HBH9 whole entry): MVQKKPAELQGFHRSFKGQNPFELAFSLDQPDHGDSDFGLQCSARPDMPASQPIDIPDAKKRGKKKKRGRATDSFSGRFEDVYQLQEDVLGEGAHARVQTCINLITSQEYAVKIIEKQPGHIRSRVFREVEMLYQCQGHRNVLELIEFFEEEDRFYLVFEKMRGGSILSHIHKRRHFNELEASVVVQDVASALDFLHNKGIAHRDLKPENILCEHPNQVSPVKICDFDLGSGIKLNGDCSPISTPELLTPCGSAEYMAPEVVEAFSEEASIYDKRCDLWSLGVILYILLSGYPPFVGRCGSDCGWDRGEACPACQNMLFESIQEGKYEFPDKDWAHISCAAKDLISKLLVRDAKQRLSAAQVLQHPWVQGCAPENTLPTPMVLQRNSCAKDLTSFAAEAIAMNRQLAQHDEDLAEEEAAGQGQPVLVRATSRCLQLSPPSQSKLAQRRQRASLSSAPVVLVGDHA

One may read the inhibition as the percentage by which the read-out fell short of the control. As for `N#Cc1cc(-c2ncnc(Nc3ccc(N4CCN(C5COC5)CC4)cc3)n2)ccc1OC1CCOCC1` [Compound 1, 5-(4-((4-(4-(oxetan-3-yl)piperazin-1-yl)phenyl)amino)-1,3,5-triazin-2-yl)-2-((tetrahydro-2H-pyran-4-yl)oxy)benzonitrile], the inhibition on off-target kinases [1] (read-out: % Inhibition 1) stood at 88%; on off-target kinases [1] (read-out: % Inhibition 2), 93%; at off-target kinases [1] (read-out: % Inhibition Avg), 91%; on off-target kinases [2] (read-out: % Inhibition 1), 18%; at off-target kinases [2] (read-out: % Inhibition 2), 14%; on off-target kinases [2] (read-out: % Inhibition Avg), 16%. The inhibition on off-target kinases [3] (AMPK (A1/B1/G2), LanthaScreen Binding, read-out: % Inhibition 1) was determined as 40%; on off-target kinases [3] (AMPK (A1/B1/G2), LanthaScreen Binding, read-out: % Inhibition 2) it was 40%; on off-target kinases [3] (AMPK (A1/B1/G2), LanthaScreen Binding, read-out: % Inhibition Avg), 40%; at off-target kinases [3] (AMPK (A1/B1/G3), LanthaScreen Binding, read-out: % Inhibition 1), 37%; at off-target kinases [3] (AMPK (A1/B1/G3), LanthaScreen Binding, read-out: % Inhibition 2) it was 42%; on off-target kinases [3] (AMPK (A1/B1/G3), LanthaScreen Binding, read-out: % Inhibition Avg), 39%. Also, the inhibition on off-target kinases [3] (AMPK (A1/B2/G1), LanthaScreen Binding, read-out: % Inhibition 1) worked out at 49%; at off-target kinases [3] (AMPK (A1/B2/G1), LanthaScreen Binding, read-out: % Inhibition 2), 43%; on off-target kinases [3] (AMPK (A1/B2/G1), LanthaScreen Binding, read-out: % Inhibition Avg) it was 46%; at off-target kinases [3] (AMPK A1/B1/G1, ATP Km app, ZLYTE, read-out: % Inhibition 1) it was 58%; at off-target kinases [3] (AMPK A1/B1/G1, ATP Km app, ZLYTE, read-out: % Inhibition 2), 53%; on off-target kinases [3] (AMPK A1/B1/G1, ATP Km app, ZLYTE, read-out: % Inhibition Avg), 55%. Also, the inhibition stood at 86% on off-target kinases [4] (read-out: % Inhibition 1), 88% at off-target kinases [4] (read-out: % Inhibition 2) and 87% on off-target kinases [4] (read-out: % Inhibition Avg).

Source of the values: patent US11572590B2, “Methods for evaluating tumor cell spheroids using 3D microfluidic cell culture device” (Dana-Farber Cancer Institute, Inc., priority 2017, dated 2023).
